pEC50: −log10 of the molar value.
Experiments:
HaCaT cells [1] = assay: Cell death on Zeiss Live Cell Observer after UV light; format: cell-based
Procedure: (§1) One day prior to imaging, HaCaT or J2 cells (20,000 approx.) were seeded into each well of a 6 well or 24 well plastic plate. Cells were allowed to incubate overnight in serum containing media. One to four hours before imaging the normal media was replaced with compound containing media, 1 mL per well. The cells were imaged in a 37° C. heated chamber and supplied with 5% CO2. Zeiss Live Cell Observer microscope: OSRAM 1×HBO 103 W/2 100 Watt Mercury Bulb, DAPI Excitation filter=335-385 nm, DAPI Emission filter=420-470 nm. Note: Cells were imaged in DMEM media which contains phenol red.

[2] = tested on: J2 cells, a mouse fibroblast cell line; assay: Cell death on Zeiss Live Cell Observer after UV light, J2 cells; format: cell-based
Procedure: as §1
Referring to FIG. 6: Cell death observations were consistent across different cell lines. […] A 10× objective lens at Phase 0 was used.

HaCaT cells [3] = assay: Cell death on Zeiss 880 confocal, 405 nm laser light; format: cell-based, human; settings: 10 μM; for membrane blebbing on repeated exposures to 405 nm laser: up to 47 exposures
Procedure: One day prior to imaging, HaCaT cells (4000 approx.) were seeded into each well of an 8 well glass slide. Cells were allowed to incubate overnight in serum containing media. One hour before imaging the normal media was replaced with compound containing media, 1 mL per well. The cells were imaged in a 37° C. heated chamber using the Zeiss LSM 880 with Airyscan confocal laser scanning microscope. Note: Cells were imaged in DMEM media which contains phenol red.
Images of 10 μM compound treated cells were taken every twenty minutes and at each time point a treatment of 405 nm light at 50% laser strength was applied.

[4] = Absorbance and emission spectra; format: physicochemical; settings: in chloroform
Procedure: FIG. 18 illustrates the combined normalised absorbance spectra of DC324, DC473 and DC474 in CHCl3 (10 μM);
FIG. 19 illustrates the combined normalised emission spectra of DC324, DC473 and DC474 in CHCl3 (100 nM) with excitation at their respective maximal absorption wavelengths;

HaCaT cells [5] = assay: ROS staining (Superoxide Detection Reagent, CellRox); format: cell-based, human; settings: for superoxide stain fluorescence after UV exposure: UV treatment, rhodamine filter, 60-260 seconds after UV
Procedure: One day prior to imaging, HaCaT cells (20,000 approx) were seeded into each well of a 24 well plastic plate. Cells were allowed to incubate overnight in serum containing media. Three hours prior to imaging, the media in each well was replaced with fresh serum containing media which included a 1:500 dilution of Superoxide Detection Reagent, CellRox. […] The cells were incubated with the ROS stain at 37° C. for one hour. An hour and a half before imaging, the media in the negative control well was replaced with N-acetyl-L-cysteine diluted in serum containing media (1 mL, 10 mM). One hour before imaging the media in all but one of the other wells was replaced with compound containing media, 1 mL per well. Thirty minutes prior to imaging, the media in the positive control well was replaced with pyocyanine diluted in serum containing media (1 mL, 500 μM). Pyocyanine induces ROS within 20-30 minutes. The cells were imaged in a heated chamber and supplied with 5% CO2. The cells were imaged in a 37° C. heated chamber using the Zeiss LSM 880 with Airyscan confocal laser scanning microscope. Cells were irradiated with 405 nm laser to activate compounds and ROS dye was excited with 633 nm laser Note: Cells were imaged in DMEM media which contains phenol red.
In order to gain more insight into the mode of action leading to cell death, we examined the photo-initiated ROS production using the redox reactive dye, CellRox, which fluoresces in response to oxidation by reactive oxygen species.

HaCaT cells [6] = assay: Dose response of cell death after 10 s UV (time lapse imaging); settings: Homo sapiens, light or radiation study, 10 seconds of UV (DAPI filter, 20× objective), 24 hours after initial irradiation, read-out: EC50 based on average viable fraction of the cellular population
Procedure: The speed of death was tested at a number of concentrations in order to determine an estimate for the EC50 (half maximal effective concentration) value. Morphological changes were recorded using time lapse imaging at 5 minute intervals. The time taken between 10 s of UV light treatment and the first sign of damage to the cell membranes was recorded. Each cell in the field of view was treated as an individual data point, before taking an average of the time for each concentration.
Referring to FIG. 12: The dose-dependent response of HaCaT cells treated with DC324 and DC473 and 10 seconds of UV. UV exposure was administered through the DAPI filter and a 20× objective lens, phase 0.

SMILES | membrane blebbing and cell death following exposure to UV light (initial screening) (HaCaT cells [1]; UV light) | membrane blebbing on repeated exposures to 405 nm laser (HaCaT cells [3]; 405 nm laser at 50% strength) | Absorbance wavelength max [4] | Absorbance wavelength range [4] | superoxide stain fluorescence after UV exposure (HaCaT cells [5]) | pEC50 (HaCaT cells [6]) | further results
CC(C)N1CCC(C)(C)c2cc(C#Cc3ccc(/C=C/C(=O)O)cc3)ccc21 [DC324, (2E)-3-(4-2-[4,4-Dimethyl-1-(propan-2-yl)-1,2,3,4-tetrahydroquinolin-6-yl]ethynylphenyl)prop-2-enoic Acid] | induced membrane blebbing and cell death | Membrane blebbing was induced | 400 max nm | 275-475 range nm | indicates superoxide production | 6.70 | cells from the same well away from the site of UV exposure (HaCaT cells [1]; 10 μM, no UV exposure): healthy cells; time to necrosis after UV treatment (HaCaT cells [1]; 10 μM, single 10 s treatment with UV light, 10× objective lens, Phase 0): within two hours; speed of cell death induction compared with other compounds (HaCaT cells [1]; UV light): most rapid inducer of cell death; UV untreated cells in the compound, same well as treated area ([2]; no UV): appear healthy after 26 hours; membrane blebbing after a single UV treatment ([2]; single UV treatment, 10× objective lens, Phase 0): displayed membrane blebbing within two hours; number of exposures until first bleb appeared (HaCaT cells [3]; 405 nm laser at 50% strength): 21 exposures; type of cell death induced by 405 nm light (HaCaT cells [3]; 405 nm laser at 50% strength): more characteristic of apoptosis than the cell death caused by UV light; cell death under 405 nm laser light versus DMSO control (HaCaT cells [3]; 405 nm light at 50% laser strength every twenty minutes): significantly different to the DMSO control; Emission wavelength max ([4]; excitation at 400 nm): 560 max nm; Emission wavelength range ([4]; excitation at 400 nm): 450-700 range nm; CellRox (ROS-stimulated) relative fluorescence after irradiation (HaCaT cells [5]; 405 nm light, before vs after irradiation): steady increase
C#CCN1CCC(C)(C)c2cc(C#Cc3ccc(/C=C/C(=O)O)cc3)ccc21 [DC474, (2E)-3-(4-{2-[4,4-Dimethyl-1-(prop-2-yn-1-yl)-1,2,3,4-tetrahydroquinolin-6-yl]ethynyl}phenyl)prop-2-enoic Acid] | – | – | 380 max nm | 275-450 range nm | – | – | melting point: 193 to 195 °C (dec.); Emission wavelength max ([4]; excitation at 300 nm): 540 max nm; Emission wavelength range ([4]; excitation at 300 nm): 450-700 range nm
CC1=C(/C=C/C(C)=C/C=C/C(C)=C/C(=O)O)C(C)(C)CCC1 [ATRA, All Trans-Retinoic Acid, reference compound] | no membrane blebbing was observed | No membrane blebbing was observed | – | – | produced an increased level of fluorescence post exposure to UV | – | –
CC1(C)CCC(C)(C)c2cc(C#Cc3ccc(C(=O)O)cc3)ccc21 [EC23, reference compound] | no membrane blebbing was observed | – | – | – | – | – | –
C#CCN1CCC(C)(C)c2cc(C#Cc3ccc(/C=C/C(=O)OC)cc3)ccc21 [DC473] | induced membrane blebbing and cell death | – | 380 max nm | 275-450 range nm | – | 6.74 | Emission wavelength max ([4]; excitation at 380 nm): 520 max nm; Emission wavelength range ([4]; excitation at 380 nm): 440-680 range nm
